Results taken from ChEMBL document CHEMBL5291721, “A preclinical secondary pharmacology resource illuminates target-adverse drug reaction associations of marketed drugs” (Nat Commun, 2023).

Assays:
[1] = target: T1, Alpha-2A adrenergic receptor (Homo sapiens, UniProt P08913); assay type: functional, cell-based
T1 sequence (P08913 whole entry): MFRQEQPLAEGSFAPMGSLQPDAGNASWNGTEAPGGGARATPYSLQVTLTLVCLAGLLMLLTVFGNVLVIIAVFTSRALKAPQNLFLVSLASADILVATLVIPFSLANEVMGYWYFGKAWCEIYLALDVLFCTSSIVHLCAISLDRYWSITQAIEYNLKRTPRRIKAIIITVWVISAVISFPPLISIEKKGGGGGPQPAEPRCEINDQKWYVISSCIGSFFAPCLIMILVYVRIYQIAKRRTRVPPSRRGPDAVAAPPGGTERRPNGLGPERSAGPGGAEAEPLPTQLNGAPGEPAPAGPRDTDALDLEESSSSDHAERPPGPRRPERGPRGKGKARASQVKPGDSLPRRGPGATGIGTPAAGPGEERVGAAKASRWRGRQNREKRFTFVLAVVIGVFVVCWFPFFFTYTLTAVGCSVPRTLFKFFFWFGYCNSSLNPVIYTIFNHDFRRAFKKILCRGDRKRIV

[2] = target: Histamine H1 receptor (Homo sapiens, UniProt P35367)
[3] = target: Voltage-dependent L-type calcium channel subunit alpha-1C (Rattus norvegicus, UniProt P22002); assay type: functional
[4] = target: T2, Alpha-2C adrenergic receptor (Homo sapiens, UniProt P18825); assay type: functional
T2 sequence (P18825 whole entry): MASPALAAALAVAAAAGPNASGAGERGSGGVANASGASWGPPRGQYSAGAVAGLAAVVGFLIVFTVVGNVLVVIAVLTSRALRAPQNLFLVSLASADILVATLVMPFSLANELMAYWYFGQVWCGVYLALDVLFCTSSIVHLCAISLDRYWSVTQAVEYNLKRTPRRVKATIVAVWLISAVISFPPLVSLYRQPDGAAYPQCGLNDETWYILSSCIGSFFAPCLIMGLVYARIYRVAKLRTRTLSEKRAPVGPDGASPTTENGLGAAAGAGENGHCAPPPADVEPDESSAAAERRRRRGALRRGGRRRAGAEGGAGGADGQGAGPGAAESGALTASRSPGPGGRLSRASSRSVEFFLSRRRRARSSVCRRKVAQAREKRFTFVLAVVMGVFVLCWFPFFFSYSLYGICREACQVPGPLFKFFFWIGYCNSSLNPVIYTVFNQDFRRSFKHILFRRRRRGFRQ

[5] = target: T3, Alpha-1A adrenergic receptor (Homo sapiens, UniProt P35348); assay type: functional, cell-based
T3 sequence (P35348 whole entry): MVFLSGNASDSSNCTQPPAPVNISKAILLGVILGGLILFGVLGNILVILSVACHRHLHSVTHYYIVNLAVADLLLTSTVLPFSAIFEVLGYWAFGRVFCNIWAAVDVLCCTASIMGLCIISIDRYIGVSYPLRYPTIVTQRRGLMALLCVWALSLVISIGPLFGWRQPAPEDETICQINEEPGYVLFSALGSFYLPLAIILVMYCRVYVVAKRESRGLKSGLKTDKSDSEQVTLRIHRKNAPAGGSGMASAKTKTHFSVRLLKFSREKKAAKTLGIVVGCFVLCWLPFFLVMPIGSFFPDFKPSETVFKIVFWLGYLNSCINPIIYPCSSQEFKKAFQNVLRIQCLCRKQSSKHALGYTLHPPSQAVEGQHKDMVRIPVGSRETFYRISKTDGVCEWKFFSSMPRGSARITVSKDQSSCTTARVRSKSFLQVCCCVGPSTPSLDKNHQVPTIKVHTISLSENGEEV

[6] = target: Sodium-dependent noradrenaline transporter (Homo sapiens, UniProt P23975)
[7] = target: Adenosine receptor A2a (Homo sapiens, UniProt P29274)
[8] = target: Sodium-dependent dopamine transporter (Homo sapiens, UniProt Q01959)
[9] = target: Kappa-type opioid receptor (Homo sapiens, UniProt P41145)
[10] = target: Growth hormone secretagogue receptor type 1 (Homo sapiens, UniProt Q92847)
[11] = target: Vasopressin V2 receptor (Homo sapiens, UniProt P30518)
[12] = target: Gamma-aminobutyric acid receptor subunit alpha-1 (Rattus norvegicus, UniProt P62813); assay type: functional
[13] = target: T4, Amine oxidase [flavin-containing] A (Homo sapiens, UniProt P21397); assay type: functional
T4 sequence (P21397 whole entry): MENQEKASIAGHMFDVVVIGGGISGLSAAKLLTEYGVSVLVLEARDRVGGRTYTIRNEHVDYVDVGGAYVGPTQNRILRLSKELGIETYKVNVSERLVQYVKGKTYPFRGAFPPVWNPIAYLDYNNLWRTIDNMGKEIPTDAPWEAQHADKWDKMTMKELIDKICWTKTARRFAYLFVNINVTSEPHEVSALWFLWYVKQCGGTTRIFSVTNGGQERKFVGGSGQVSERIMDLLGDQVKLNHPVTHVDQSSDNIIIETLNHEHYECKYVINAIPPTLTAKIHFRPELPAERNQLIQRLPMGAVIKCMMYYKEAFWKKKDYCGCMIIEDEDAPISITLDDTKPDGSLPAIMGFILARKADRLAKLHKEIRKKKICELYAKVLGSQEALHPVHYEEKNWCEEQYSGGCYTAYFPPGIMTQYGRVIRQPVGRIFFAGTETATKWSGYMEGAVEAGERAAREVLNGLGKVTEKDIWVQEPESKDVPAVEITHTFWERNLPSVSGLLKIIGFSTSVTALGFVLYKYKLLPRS
Further: assay procedure not described here.

Growth hormone secretagogue receptor type 1, sequence (Q92847 whole entry): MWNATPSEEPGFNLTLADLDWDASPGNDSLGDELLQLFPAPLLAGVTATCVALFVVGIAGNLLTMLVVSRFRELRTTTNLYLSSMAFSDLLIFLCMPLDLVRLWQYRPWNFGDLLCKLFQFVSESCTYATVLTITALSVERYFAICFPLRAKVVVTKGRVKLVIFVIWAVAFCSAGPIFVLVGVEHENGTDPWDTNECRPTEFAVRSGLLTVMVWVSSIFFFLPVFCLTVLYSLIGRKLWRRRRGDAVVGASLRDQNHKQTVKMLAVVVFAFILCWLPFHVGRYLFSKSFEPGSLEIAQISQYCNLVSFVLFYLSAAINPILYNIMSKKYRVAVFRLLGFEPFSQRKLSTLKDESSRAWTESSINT
Sodium-dependent noradrenaline transporter, sequence (P23975 whole entry): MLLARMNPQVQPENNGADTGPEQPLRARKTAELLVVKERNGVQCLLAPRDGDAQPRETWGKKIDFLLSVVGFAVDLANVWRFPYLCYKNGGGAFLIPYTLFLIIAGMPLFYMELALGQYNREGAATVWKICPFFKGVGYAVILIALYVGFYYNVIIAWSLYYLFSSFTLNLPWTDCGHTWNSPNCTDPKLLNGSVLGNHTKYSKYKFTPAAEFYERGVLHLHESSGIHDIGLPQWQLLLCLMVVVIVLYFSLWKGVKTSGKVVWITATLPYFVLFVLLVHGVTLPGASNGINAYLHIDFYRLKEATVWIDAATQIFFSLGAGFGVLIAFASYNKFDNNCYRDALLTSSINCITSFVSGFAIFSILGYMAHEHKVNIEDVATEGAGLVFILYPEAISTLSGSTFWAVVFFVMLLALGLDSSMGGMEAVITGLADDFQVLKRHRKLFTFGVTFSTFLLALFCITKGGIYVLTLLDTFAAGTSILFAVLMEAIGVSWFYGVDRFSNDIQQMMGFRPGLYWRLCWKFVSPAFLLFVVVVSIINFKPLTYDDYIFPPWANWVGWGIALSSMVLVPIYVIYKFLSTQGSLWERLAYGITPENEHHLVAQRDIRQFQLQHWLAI
Sodium-dependent dopamine transporter, sequence (Q01959 whole entry): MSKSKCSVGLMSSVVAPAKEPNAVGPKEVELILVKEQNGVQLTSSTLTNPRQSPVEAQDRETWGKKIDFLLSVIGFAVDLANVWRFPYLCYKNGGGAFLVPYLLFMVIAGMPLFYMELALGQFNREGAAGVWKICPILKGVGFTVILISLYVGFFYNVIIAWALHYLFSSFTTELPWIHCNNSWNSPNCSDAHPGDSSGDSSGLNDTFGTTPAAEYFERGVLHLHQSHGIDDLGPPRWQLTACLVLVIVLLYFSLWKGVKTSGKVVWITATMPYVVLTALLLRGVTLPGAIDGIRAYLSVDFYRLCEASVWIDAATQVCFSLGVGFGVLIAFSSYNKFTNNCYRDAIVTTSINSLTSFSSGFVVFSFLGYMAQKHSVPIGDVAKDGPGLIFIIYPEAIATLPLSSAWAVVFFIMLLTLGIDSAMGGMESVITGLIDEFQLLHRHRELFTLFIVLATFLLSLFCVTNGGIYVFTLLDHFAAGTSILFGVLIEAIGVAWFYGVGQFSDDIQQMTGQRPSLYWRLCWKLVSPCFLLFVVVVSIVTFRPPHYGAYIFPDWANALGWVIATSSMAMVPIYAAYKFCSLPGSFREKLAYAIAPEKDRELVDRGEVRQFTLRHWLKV
Gamma-aminobutyric acid receptor subunit alpha-1, sequence (P62813 whole entry): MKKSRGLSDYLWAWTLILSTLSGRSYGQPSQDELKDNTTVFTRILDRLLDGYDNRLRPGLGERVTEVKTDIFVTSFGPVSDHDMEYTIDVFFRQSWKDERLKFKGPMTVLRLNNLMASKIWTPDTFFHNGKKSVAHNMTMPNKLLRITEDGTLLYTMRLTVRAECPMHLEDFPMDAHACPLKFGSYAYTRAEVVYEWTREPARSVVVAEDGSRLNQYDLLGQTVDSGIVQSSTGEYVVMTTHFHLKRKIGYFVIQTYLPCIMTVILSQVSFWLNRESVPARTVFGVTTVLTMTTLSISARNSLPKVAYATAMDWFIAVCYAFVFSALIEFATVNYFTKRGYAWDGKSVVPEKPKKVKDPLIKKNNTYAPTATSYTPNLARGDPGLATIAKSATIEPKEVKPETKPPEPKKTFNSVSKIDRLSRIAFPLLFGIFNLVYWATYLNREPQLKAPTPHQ
Voltage-dependent L-type calcium channel subunit alpha-1C, sequence (P22002 whole entry): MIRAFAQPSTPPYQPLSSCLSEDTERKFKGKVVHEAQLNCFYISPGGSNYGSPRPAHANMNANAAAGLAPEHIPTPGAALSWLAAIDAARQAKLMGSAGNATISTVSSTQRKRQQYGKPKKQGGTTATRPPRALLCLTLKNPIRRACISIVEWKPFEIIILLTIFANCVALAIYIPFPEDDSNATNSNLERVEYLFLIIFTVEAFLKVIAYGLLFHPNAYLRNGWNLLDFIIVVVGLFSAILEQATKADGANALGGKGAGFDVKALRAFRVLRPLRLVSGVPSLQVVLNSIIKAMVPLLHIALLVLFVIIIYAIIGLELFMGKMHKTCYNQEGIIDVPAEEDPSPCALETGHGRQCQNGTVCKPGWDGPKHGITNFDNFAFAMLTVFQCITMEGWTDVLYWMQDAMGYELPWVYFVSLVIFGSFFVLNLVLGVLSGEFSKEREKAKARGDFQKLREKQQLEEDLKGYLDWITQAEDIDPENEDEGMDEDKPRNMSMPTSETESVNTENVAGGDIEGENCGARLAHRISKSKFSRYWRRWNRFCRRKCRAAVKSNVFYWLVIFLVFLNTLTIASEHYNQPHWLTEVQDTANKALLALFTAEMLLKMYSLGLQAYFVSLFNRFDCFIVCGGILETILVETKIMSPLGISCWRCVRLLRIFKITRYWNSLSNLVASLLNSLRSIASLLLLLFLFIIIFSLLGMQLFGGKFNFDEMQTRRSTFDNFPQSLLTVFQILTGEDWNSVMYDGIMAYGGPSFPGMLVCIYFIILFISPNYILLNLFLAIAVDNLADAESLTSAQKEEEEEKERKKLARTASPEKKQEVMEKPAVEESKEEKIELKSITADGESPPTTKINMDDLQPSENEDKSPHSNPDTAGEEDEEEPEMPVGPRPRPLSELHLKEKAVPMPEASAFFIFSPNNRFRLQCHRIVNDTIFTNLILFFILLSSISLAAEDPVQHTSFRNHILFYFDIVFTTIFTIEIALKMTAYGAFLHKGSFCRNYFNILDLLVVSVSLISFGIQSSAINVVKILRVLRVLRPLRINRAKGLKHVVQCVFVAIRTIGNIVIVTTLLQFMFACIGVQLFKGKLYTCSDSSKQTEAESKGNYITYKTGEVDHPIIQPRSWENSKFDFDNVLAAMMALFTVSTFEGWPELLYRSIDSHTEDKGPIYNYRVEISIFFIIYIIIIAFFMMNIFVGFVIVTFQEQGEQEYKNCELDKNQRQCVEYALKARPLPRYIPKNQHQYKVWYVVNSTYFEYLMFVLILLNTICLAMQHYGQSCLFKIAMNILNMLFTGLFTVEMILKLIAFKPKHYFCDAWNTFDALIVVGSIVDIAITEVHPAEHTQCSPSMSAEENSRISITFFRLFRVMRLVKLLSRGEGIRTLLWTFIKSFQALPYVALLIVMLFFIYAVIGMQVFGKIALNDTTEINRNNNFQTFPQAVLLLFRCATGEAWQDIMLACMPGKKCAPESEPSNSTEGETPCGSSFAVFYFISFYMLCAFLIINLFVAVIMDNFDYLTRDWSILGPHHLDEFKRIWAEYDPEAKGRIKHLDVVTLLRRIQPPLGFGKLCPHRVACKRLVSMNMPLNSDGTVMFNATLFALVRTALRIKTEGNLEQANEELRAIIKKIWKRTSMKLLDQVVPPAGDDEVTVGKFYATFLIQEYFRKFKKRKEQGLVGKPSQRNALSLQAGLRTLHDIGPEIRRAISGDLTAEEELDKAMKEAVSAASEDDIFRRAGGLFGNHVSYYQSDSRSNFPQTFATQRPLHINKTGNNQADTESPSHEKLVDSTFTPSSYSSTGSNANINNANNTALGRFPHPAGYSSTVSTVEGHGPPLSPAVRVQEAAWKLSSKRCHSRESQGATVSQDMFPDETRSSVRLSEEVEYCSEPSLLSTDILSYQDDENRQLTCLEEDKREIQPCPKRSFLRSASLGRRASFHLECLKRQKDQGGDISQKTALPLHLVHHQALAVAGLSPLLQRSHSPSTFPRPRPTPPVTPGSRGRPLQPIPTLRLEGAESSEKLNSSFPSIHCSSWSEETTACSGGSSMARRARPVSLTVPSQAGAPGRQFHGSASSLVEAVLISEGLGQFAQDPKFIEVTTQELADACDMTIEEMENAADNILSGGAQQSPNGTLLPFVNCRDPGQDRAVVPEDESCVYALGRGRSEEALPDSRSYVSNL
Histamine H1 receptor, sequence (P35367 whole entry): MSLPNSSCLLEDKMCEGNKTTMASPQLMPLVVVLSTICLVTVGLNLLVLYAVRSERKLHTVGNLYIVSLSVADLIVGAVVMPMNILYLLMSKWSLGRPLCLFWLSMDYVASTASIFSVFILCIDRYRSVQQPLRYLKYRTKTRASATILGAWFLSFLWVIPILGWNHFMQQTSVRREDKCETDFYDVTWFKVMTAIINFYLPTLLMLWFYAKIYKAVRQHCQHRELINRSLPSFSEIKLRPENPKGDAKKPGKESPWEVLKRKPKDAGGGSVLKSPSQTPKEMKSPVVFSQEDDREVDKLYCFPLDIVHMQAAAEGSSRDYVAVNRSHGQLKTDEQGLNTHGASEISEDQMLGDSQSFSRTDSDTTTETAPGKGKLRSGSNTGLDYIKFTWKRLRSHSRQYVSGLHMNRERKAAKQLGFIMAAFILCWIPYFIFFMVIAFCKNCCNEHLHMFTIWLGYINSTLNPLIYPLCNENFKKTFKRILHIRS

SMILES	AC50 [1]	AC50 [2]	AC50 [3]	AC50 [4]	AC50 [5]	AC50 [6]	AC50 [7]	AC50 [8]	AC50 [9]	AC50 [10]	AC50 [11]	AC50 [12]	AC50 [13]
Cc1cn(-c2cc(NC(=O)c3ccc(C)c(Nc4nccc(-c5cnccn5)n4)c3)cc(C(F)(F)F)c2)cn1 [RADOTINIB]		> 30 µM		> 30 µM	> 30 µM	> 30 µM	> 30 µM	> 30 µM					> 30 µM
COc1ccc(-c2cc(=S)ss2)cc1 [ANETHOLTRITHION]	> 30 µM	> 30 µM	> 30 µM	> 30 µM	> 30 µM	7.3 µM	11 µM	10 µM	> 30 µM	> 30 µM	> 30 µM	> 30 µM	7.4 µM
Cc1ccc(O)c([C@H](CCN(C(C)C)C(C)C)c2ccccc2)c1 [TOLTERODINE]	> 10 µM	4.06 µM	> 10 µM	> 10 µM	> 30 µM	> 10 µM		> 10 µM	6.71 µM			> 10 µM	> 10 µM
COc1cccc2c1C(=O)c1c(O)c3c(c(O)c1C2=O)C[C@@](O)(C(=O)CO)C[C@@H]3O[C@H]1C[C@H](N)[C@H](O)[C@H](C)O1 [DOXORUBICIN]	> 10 µM		> 10 µM	> 30 µM		> 30 µM	> 30 µM	> 30 µM	> 10 µM	> 30 µM	> 30 µM	> 10 µM	> 30 µM
Oc1cc(Cl)ccc1Oc1ccc(Cl)cc1Cl [TRICLOSAN]	> 30 µM	> 30 µM		> 30 µM	> 30 µM	0.7 µM	> 30 µM	24 µM	> 30 µM	> 30 µM	> 30 µM	> 30 µM	> 30 µM
C[C@]12CCC(=O)C=C1C=C[C@@H]1[C@@H]2CC[C@@]2(C)[C@H]1CC[C@@]21CCC(=O)O1 [CANRENONE]	> 30 µM	> 30 µM	> 30 µM	> 30 µM	> 30 µM	> 30 µM	> 30 µM	> 30 µM	19 µM	> 30 µM	> 30 µM	> 30 µM	> 30 µM
CCn1c(=O)c2c(nc(/C=C/c3ccc(OC)c(OC)c3)n2C)n(CC)c1=O [ISTRADEFYLLINE]		> 30 µM		> 30 µM	> 30 µM	> 30 µM		> 30 µM					> 30 µM

Second part, the compound after the results:

AC50 [1]	AC50 [2]	AC50 [3]	AC50 [4]	AC50 [5]	AC50 [6]	AC50 [7]	AC50 [8]	AC50 [9]	AC50 [10]	AC50 [11]	AC50 [12]	AC50 [13]	SMILES
> 30 µM	> 30 µM	> 30 µM	> 30 µM	> 30 µM	> 30 µM	> 30 µM	> 30 µM	> 30 µM	> 30 µM	> 30 µM	> 30 µM		CC(C)(Oc1ccc(Cl)cc1)C(=O)OCCOC(=O)c1cccnc1 [ETOFIBRATE]
	> 30 µM	> 30 µM	> 30 µM	> 30 µM	> 30 µM	> 30 µM	> 30 µM	> 30 µM	> 30 µM	> 30 µM	> 30 µM	> 30 µM	C[C@]12CCC(=O)C=C1[C@@H]1C[C@@H]1[C@H]1[C@@H]3[C@@H]4C[C@@H]4[C@@]4(CCC(=O)O4)[C@@]3(C)CC[C@@H]12 [DROSPIRENONE]
> 10 µM		> 10 µM	> 10 µM	> 30 µM	> 30 µM	> 30 µM	> 30 µM	> 10 µM	> 30 µM	> 30 µM	> 10 µM	> 10 µM	C[C@]12C=CC(=O)C=C1CC[C@@H]1[C@@H]2[C@@H](O)C[C@@]2(C)[C@H]1CC[C@]2(O)C(=O)CO [PREDNISOLONE]
> 10 µM	> 10 µM	> 10 µM	> 10 µM		> 10 µM	> 10 µM	> 10 µM	7.1 µM	> 10 µM	> 10 µM	> 10 µM	> 10 µM	CN(C)CCC(O)(c1ccccc1)c1ccccc1Cl (stereo unspecified) [CHLOPHEDIANOL]
> 30 µM		> 30 µM	> 30 µM			> 30 µM	> 30 µM	> 30 µM	> 30 µM	> 30 µM	> 30 µM	> 30 µM	CC1(C)O[C@@H]2C[C@H]3[C@@H]4CCC5=CC(=O)C=C[C@]5(C)[C@@]4(F)[C@@H](O)C[C@]3(C)[C@]2(C(=O)CO)O1 [TRIAMCINOLONE ACETONIDE]
> 30 µM	> 30 µM		> 30 µM		> 30 µM	> 30 µM	> 30 µM	> 30 µM	> 30 µM	> 30 µM	> 30 µM	> 30 µM	C[C@]12C=CC(=O)C=C1C(Cl)=C[C@@H]1[C@@H]2[C@@H](O)C[C@@]2(C)[C@H]1CC[C@]2(O)C(=O)CO [CLOPREDNOL]
> 10 µM	0.034 µM	> 10 µM	4.5 µM		> 10 µM	> 10 µM	> 10 µM	1.7 µM	> 10 µM	> 10 µM	> 10 µM	> 10 µM	CCC(=O)c1ccc2c(c1)N(CC(C)N(C)C)c1ccccc1S2 (stereo unspecified) [PROPIOMAZINE]
> 10 µM	> 10 µM	> 10 µM	> 10 µM	> 30 µM	> 10 µM	> 10 µM	> 10 µM	> 10 µM	> 10 µM	> 10 µM	> 10 µM	> 10 µM	CN(C)[C@@H]1C(O)=C(C(=O)NCN2CCCC2)C(=O)[C@@]2(O)C(O)=C3C(=O)c4c(O)cccc4[C@@](C)(O)[C@H]3C[C@@H]12 [ROLITETRACYCLINE]
